Entries after “also recorded” stand apart in the source; their conditions may differ.
Tests used:
alveolar macrophages = assay: Fc-stimulated phagosomal ROS production ex vivo in isolated alveolar macrophages (FcOxyburst); parameters: species or system mouse; details: wt and Ppar-δ mye−/− mice gavaged for 3 days
Experimental: (§1) Mice were infected with 5×10^5 CFU of S. pneumoniae. […] Twenty-four hours post-infection, lavage fluid was isolated and analyzed for bacterial counts. […] Mice were gavaged with GW501516 for three days. […] Alveolar macrophages were isolated and ROS was determined using FcOxyburst. Data are presented as mean±SEM. *p<0.05.
We next sought to explore the therapeutic potential of the Ppar-δ controlled phagosomal function in pathologies associated with infection. For this purpose, wt mice were infected with a higher dose of S. pneumoniae through nasal inhalation, which led to lethality in 75% of mice within 5 days post-injection (FIG. 5a). […]
Bacterial killing assays were used for in vitro bacterial killing^37,38. […] Colony forming units (CFU) were determined as a measure of bacterial survival. ROS assays were done using FcOxyburst (Invitrogen) according to manufacturers protocols and analyzed by fluorescence activated cell sorting (FACS). Phagocytosis and phagosome number were determined by FACS using Alexa Fluor 647 labeled heat killed S. pneumoniae^32. pH was determined as previously described^32. […] Macrophages were incubated with labeled bacteria and analyzed by FACS for FITC relative to Alexa Fluor 647 signal. ATP and lactate were measured using commercially available kits. […]

Ppar-δ = assay: Gene expression analyses of Balf cells by real-time PCR; assay type: in vivo, mouse; details: mice gavaged for three days
Experimental: as §1
For gene expression analyses, we determined relative expression levels using SYBR Green-based real-time qPCR reactions. We used 36B4 expression levels for normalization. For in vitro analyses of infected macrophages, S. pneumoniae conjugated to magnetic beads were used during infection (see Bacterial Growth and Manipulation for details). Cells were infected for 1 hr with conjugated beads. At the end of the experiment, a magnet was used to separate cells that contained intracellular magnetic bacteria. These cells were used for expression analyses.

S. pneumoniae = assay: Survival in a mouse model of pneumonia (intranasal S. pneumoniae infection); assay type: in vivo; details: wt C57BL/6 mice, 2 mg kg^−1 per day by gavage, 5×10^5 CFU S. pneumoniae
Experimental: as §1
We next sought to explore the therapeutic potential of the Ppar-δ controlled phagosomal function in pathologies associated with infection. For this purpose, wt mice were infected with a higher dose of S. pneumoniae through nasal inhalation, which led to lethality in 75% of mice within 5 days post-injection (FIG. 5a). […] Taken together, our data implicate the potential use of synthetic Ppar-δ agonists to improve the outcomes of bacteria infection, such as pneumonia.
Ppar-δ floxed animals were generated as described previously^33,34. Ppar-δ mice were crossed to lysozyme cre mice (Jackson laboratory) to generate Ppar-δ^mye−/− mice. Ppar-δ^fl/fl mice were used as wt controls. All mice were maintained on a C57BL/6 background. Mice used for survival studies in FIG. 5 were C57BL/6 mice purchased from Jackson Laboratory. Bone marrow from CSS-17 mice was provided by Dr. Colleen Croniger (Case Western Reserve University). For in vivo killing assays, mice were anesthetized with a ketamine/xylazine solution and infected intranasally with 10^6 CFU S. pneumoniae. […]

Noxo1 promoter [1] = assay: Noxo1 promoter luciferase reporter in stably transformed wt and Ppar-δ−/− macrophage cell lines; assay type: cell-based, mouse; details: Ppar-δ−/− macrophage cell lines vs wt
Experimental: (§2) FIGS. 3a-3c show the transcriptional regulation of macrophage phagosomal function by Ppar-δ. FIGS. 3a and 3b show the expression of genes involved in NADPH oxidase complexes in cultured macrophages and alveolar macrophages, respectively. Gene expression was determined by real-time PCR. […] RAW264.7 macrophages were transfected with a luciferase reporter driven by the 2 kb 5′-regulatory region of the Noxo1 or Nox2 gene. […] Transfection was done in stably transformed wt and Ppar-δ^−/− macrophage cell lines. Data are presented as mean±SEM. *p<0.05.
(§3) To elucidate downstream targets of Ppar-δ mediating phagosomal ROS production, expression of genes involved in this process was analyzed in stably transformed wt and Ppar-δ^−/− macrophages and in alveolar lavage cells from wt and Ppar-δ^mye−/− mice after S. pneumoniae infection. […] To determine whether members of the NADPH complex are transcriptional targets of Ppar-δ, we generated luciferase reporter constructs driven by 2 kb upstream promoters of Noxo1 and Nox2. […] Indeed, we found the expression of Ppar-δ and its known target Slc25a20 increased after bacteria infection (FIG. 7a).
Bone marrow-derived macrophages were differentiated in L929 conditioned media as previously described^14. Stables lines were created from bone marrow of Ppar-δ^mye−/− and control mouse lines using a CreJ2 viral system^35,36. […]

Noxo1 promoter [2] = assay: Noxo1 promoter luciferase reporter in RAW macrophages; assay type: cell-based; details: RAW267.4 macrophages, luciferase reporter driven by 2 kb 5′-regulatory region, treated 12 hours
Experimental: as §2, §3

## Cc1cc(SCc2sc(-c3ccc(C(F)(F)F)cc3)nc2C)ccc1OCC(=O)O [GW501516]
Alveolar macrophages
  phagosome ROS production in alveolar macrophages: increased ROS production in a Ppar-δ dependent manner; also recorded: increases phagosome ROS production
Ppar-δ
  expression of Ppar-δ in Balf cells: increase
  expression of Ppar-δ target gene Slc25a20 in Balf cells: increase
  level of Noxa1 mRNA in Balf cells: increased
  level of Noxo1 mRNA in Balf cells: increased
S. pneumoniae
  onset of death: delayed onset of death
S. pneumoniae; 3 days prior to and every other day after infection
  survival compared to vehicle-treated mice: significant improvement in survival
Noxo1 promoter [1]
  ability to induce Noxo1 promoter activity in cells lacking Ppar-δ: lost
Noxo1 promoter [2]
  promoter activity of Noxo1: increased; also recorded: able to increase activity of the promoter of Noxo1

From patent publication US20150018396A1, “PREVENTION AND TREATMENT OF RESPIRATORY INFECTION WITH PEROXISOME PROLIFERATOR ACTIVATOR RECEPTOR DELTA AGONIST” (PRESIDENT AND FELLOWS OF HARVARD COLLEGE, priority 2012, published 2015)
